IC50 data for 28 compounds are collected here from ChEMBL document CHEMBL5096241, “Discovery of 3-Aminopyrazole Derivatives as New Potent and Orally Bioavailable AXL Inhibitors” (J Med Chem, 2022).

In experiment [1] the target is T1, Tyrosine-protein kinase receptor UFO (Homo sapiens, UniProt P30530).
T1 sequence (P30530 whole entry): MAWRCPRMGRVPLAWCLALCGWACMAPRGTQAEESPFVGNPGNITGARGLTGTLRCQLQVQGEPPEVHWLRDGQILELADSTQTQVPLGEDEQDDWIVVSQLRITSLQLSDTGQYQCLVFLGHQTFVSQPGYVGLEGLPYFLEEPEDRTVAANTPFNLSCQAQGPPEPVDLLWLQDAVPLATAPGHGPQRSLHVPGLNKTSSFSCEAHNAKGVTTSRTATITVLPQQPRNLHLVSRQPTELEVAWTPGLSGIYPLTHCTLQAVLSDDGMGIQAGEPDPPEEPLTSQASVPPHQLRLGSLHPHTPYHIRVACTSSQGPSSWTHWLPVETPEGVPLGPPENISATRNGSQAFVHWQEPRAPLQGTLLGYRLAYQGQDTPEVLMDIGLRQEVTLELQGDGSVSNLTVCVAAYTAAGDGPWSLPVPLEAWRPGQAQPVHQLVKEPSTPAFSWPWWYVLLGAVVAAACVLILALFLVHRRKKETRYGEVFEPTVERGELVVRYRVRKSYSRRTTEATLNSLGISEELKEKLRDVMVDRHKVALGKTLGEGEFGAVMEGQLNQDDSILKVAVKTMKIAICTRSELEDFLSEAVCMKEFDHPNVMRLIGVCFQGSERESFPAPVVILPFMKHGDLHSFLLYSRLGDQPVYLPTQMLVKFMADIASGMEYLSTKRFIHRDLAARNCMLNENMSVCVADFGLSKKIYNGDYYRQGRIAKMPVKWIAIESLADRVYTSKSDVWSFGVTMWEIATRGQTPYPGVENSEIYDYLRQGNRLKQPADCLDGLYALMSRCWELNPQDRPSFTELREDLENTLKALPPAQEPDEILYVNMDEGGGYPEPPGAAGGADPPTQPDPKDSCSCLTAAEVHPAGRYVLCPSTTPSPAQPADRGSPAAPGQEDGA
Put plainly: Inhibition of recombinant AXL (unknown origin) using poly (Glu,Tyr) 4:1 as substrate incubated for 60 mins in presence of ATP by ELISA. On the technique in general: ELISA stands for enzyme-linked immunosorbent assay.

A further experiment relates to BaF3. Put plainly: Antiproliferative activity against mouse BaF3 cells transfected with TEL-AXL assessed as inhibition of cell growth incubated for 72 hrs. It counts as functional, cell-based. To be noted: BaF3, 72 h.

Where only a bound is given, the exact number is not on record here.

The term IC50 denotes the point on the concentration scale where inhibition reaches its midpoint. In the case of `COc1cc2nccc(Oc3ccc(Nc4nn(C)cc4C(=O)Nc4ccc(F)cc4)cc3F)c2cc1OC`, the IC50 in experiment [1] came to 40.1 nM. Still for that read-out and setting: with `COc1ccc(NC(=O)c2cn(C)nc2Nc2ccc(Oc3ccnc4cc(OC)c(OC)cc34)c(F)c2)cc1` the figure was 86.7 nM.

In the case of `COc1cc2c(Oc3ccc(Nc4nn(C)cc4C(=O)NC4CCCCC4)cc3F)ccnc2cc1OCCCN1CCN(C)CC1`, the IC50 stood at 9 nM in the experiment with BaF3 and 2.9 nM in experiment [1].

`COc1cc2nccc(Oc3ccc(Nc4nn(C)cc4C(=O)Nc4ccc(C)cc4)cc3F)c2cc1OC`: the IC50 in experiment [1] is 23.1 nM. Take `COc1cc2nccc(Oc3ccc(Nc4nn(C)cc4C(=O)Nc4cccc(F)c4)cc3F)c2cc1OC`: in experiment [1], the IC50 was 265 nM. On the same count and under the same terms, the same measure for `COc1cc2nccc(Oc3ccc(Nc4nn(C)cc4C(=O)NC(C)(C)C)cc3F)c2cc1OC`: 142 nM; for `COc1cc2c(Oc3ccc(Nc4nn(C)cc4C(=O)NC4CCCCC4)cc3F)ccnc2cc1OCCCN1CCCCC1`: 5.6 nM. `COc1cc2nccc(Oc3ccc(Nc4nn(C)cc4C(=O)NC4CCCCC4)cc3F)c2cc1OC`: in experiment [1], the IC50 was found to be 11.4 nM.

With `COc1cc2nccc(Oc3ccc(Nc4nn(C)cc4C(=O)Nc4ccc(C(C)C)cc4)cc3F)c2cc1OC`, the IC50 in experiment [1] was more than 1000 nM. The same measure, in the same setting: the same measure for `CNC(=O)c1cn(C)nc1Nc1ccc(Oc2ccnc3cc(OC)c(OC)cc23)c(F)c1`: more than 1000 nM; for `COc1cc2nccc(Oc3ccc(Nc4nn(C)cc4C(=O)Nc4ccccc4)cc3F)c2cc1OC`: 25.4 nM. Turning to `Nc1nc(Nc2ccc3c(c2)CCC(N2CCCC2)CC3)nn1-c1cc2c(nn1)-c1ccccc1CCC2` (single isomer, unassigned) [BEMCENTINIB], the IC50 with BaF3 was found to be 98.8 nM. `COc1cc2nccc(Oc3ccc(Nc4nn(C)cc4C(=O)Nc4ccc(OC(F)(F)F)cc4)cc3F)c2cc1OC`: in experiment [1], the IC50 was more than 1000 nM. For `COc1cc2nccc(Oc3ccc(Nc4nn(C)cc4C(=O)NC4CCCCCCC4)cc3F)c2cc1OC`, in experiment [1], the IC50 stood at 12.5 nM. Still for that read-out and setting: the same measure for `COc1cc2nccc(Oc3ccc(Nc4nn(C)cc4C(=O)NC4C5CC6CC(C5)CC4C6)cc3F)c2cc1OC` (stereo not given): 13.2 nM. `COc1cc2c(Oc3ccc(Nc4nn(C)cc4C(=O)NC4CCCCC4)cc3F)ccnc2cc1OCCCN(C)C`: the IC50 came out at 11.6 nM in the experiment on BaF3 and 3.2 nM in experiment [1]. In the case of `COCCCOc1cc2nccc(Oc3ccc(Nc4nn(C)cc4C(=O)NC4CCCCC4)cc3F)c2cc1OC`, in experiment [1], the IC50 stood at 8.6 nM.

Take `COc1cc2nccc(Oc3ccc(Nc4nn(C)cc4C(=O)N4CCCCC4)cc3F)c2cc1OC`: the IC50 in experiment [1] is more than 1000 nM. Take `COc1cc2nccc(Oc3ccc(Nc4nn(C)cc4C(=O)NC4CCOCC4)cc3F)c2cc1OC`: in experiment [1], the IC50 was found to be 120 nM. `COc1cc2nccc(Oc3ccc(Nc4nn(C)cc4C(=O)NC4CCCCC4)cc3C)c2cc1OC`: the IC50 in experiment [1] stood at 40.4 nM. On the same count and under the same terms, the same measure for `COc1cc2nccc(Oc3ccc(Nc4nn(C)cc4C(=O)NC4CCC(F)(F)CC4)cc3F)c2cc1OC`: 65.1 nM; for `COc1cc2nccc(Oc3ccc(Nc4nn(C)cc4C(=O)Nc4ccc(OC(F)F)cc4)cc3F)c2cc1OC`: 64.4 nM. Same read-out and setting: the same measure for `COc1cc2nccc(Oc3ccc(Nc4nn(C)cc4C(=O)NC4CCCCC4)cc3)c2cc1OC`: 35 nM; for `COCCOc1cc2nccc(Oc3ccc(Nc4nn(C)cc4C(=O)NC4CCCCC4)cc3F)c2cc1OC`: 7.8 nM. With `CCNC(=O)c1cn(C)nc1Nc1ccc(Oc2ccnc3cc(OC)c(OC)cc23)c(F)c1`, the IC50 in experiment [1] is 238 nM. Still for that read-out and setting: with `COc1cc2nccc(Oc3ccc(Nc4nn(C)cc4C(=O)NC4CC4)cc3F)c2cc1OC` the figure was 586 nM. As for `COc1cc2nccc(Oc3ccc(Nc4nn(C)cc4C(=O)NC4CCCCC4)cc3OC)c2cc1OC`, the IC50 in experiment [1] amounted to 40.4 nM. For the compound `COc1cc2nccc(Oc3ccc(Nc4nn(C)cc4C(=O)NC4CCCC4)cc3F)c2cc1OC`, in experiment [1], the IC50 came to 27.4 nM.
